Numbers after ± are expanded uncertainties.
Legend:
[1] = 101.33 kPa, Liquid, Pycnometric method
[2] = xn = mol fraction of the nth substance listed; settings: 101 kPa, Liquid, Capillary tube (Ostwald / Ubbelohde) method

c1ccccc1 [benzene]
[1]
Settings	mass density [kg/m3]
303.15 K	868.1 ± 0.5
313.15 K	857.4 ± 0.6
323.15 K	846.6 ± 0.6

c1ccccc1 [benzene] + CCC(C)=O
[2], x2 = 0
Settings	viscosity [mPa·s]
303.15 K	0.564 ± 0.011
313.15 K	0.498 ± 0.011
323.15 K	0.442 ± 0.011

CCC(C)=O [butanone]
[1]
Settings	mass density [kg/m3]
303.15 K	794.6 ± 0.8
313.15 K	784 ± 0.8
323.15 K	773.3 ± 0.8

CCC(C)=O [butanone] + c1ccccc1
viscosity [mPa·s], [2]
Settings	x1 = 0.101	x1 = 0.1999	x1 = 0.2988	x1 = 0.3969	x1 = 0.4996	x1 = 0.5988	x1 = 0.6993	x1 = 0.7931	x1 = 0.8961	x1 = 1
303.15 K	0.534 ± 0.011	0.508 ± 0.011	0.478 ± 0.011	0.452 ± 0.011	0.432 ± 0.011	0.417 ± 0.011	0.401 ± 0.011	0.389 ± 0.011	0.376 ± 0.011	0.367 ± 0.011
313.15 K	0.473 ± 0.011	0.448 ± 0.011	0.427 ± 0.011	0.409 ± 0.011	0.393 ± 0.011	0.378 ± 0.011	0.367 ± 0.011	0.355 ± 0.011	0.345 ± 0.011	0.334 ± 0.011
323.15 K	0.422 ± 0.011	0.403 ± 0.011	0.384 ± 0.011	0.369 ± 0.011	0.354 ± 0.011	0.343 ± 0.011	0.333 ± 0.011	0.324 ± 0.011	0.316 ± 0.011	0.306 ± 0.011
